# Source: PMC8541628, “Development of Novel Quinoline-Based Sulfonamides as Selective Cancer-Associated Carbonic Anhydrase Isoform IX Inhibitors” (International Journal of Molecular Sciences, 2021)
# Like-named read-outs stand apart in the source and are kept apart here.
# Columns and labels:
# Bax [1] = assay: Bax expression level (ELISA) in MCF-7 cells; format: cell-based, human; settings: 24 h incubation
# Method: (§1) The levels of two members of Bcl-2 family proteins, the anti-apoptotic Bcl-2 protein, and the counteracting pro-apoptotic Bax protein, as well as the level of active caspase-3 (a key executioner protease) in MDA-MB-231 and MCF-7 cells have been assessed after incubation with QBS 11c and 13b for 24 h.
# (§2) All adopted procedures for the conducted in vitro biological assays were performed as described earlier; CA (stopped-flow), cytotoxicity (MTT [37, 38]), and assessment of apoptotic markers assays, as well as induction of hypoxia with cobalt chloride, and were mentioned in the Supporting Materials. […]
# (§3) monolay er. Cell monolay ers were treated in quadrates with vehicle (DMSO, 0.1% v/v), test samples or Adriamycin as positive control for an exposure time of 72 h. At the end of exposure, MTT solution in PBS (5 mg/ml) was then added to all well including no cell blank and left to incubate for 90 min. The formation of formazan crystals were visually confirmed using phase contract microscopy. DMSO (100 µl/well) was added to dissolve the formazan crystals with shaking for 10 min after which the absorbance was read at 590 nm against no cell blanks on a FLuo Star Optima microplate reader (BMG technologies, Germany). Cell proliferation was calculated comparing the OD values of the DMSO control wells and those of the samples represented as % proliferation to the control. Dose-response experiment was performed on samples producing > or =50% loss of cell proliferation using five serial 2-fold dilutions (50, 25, 12.5, 6.25 and 3.125 µM) of the sample. IC50 values (concentration of sample causing 50% loss of cell proliferation of the vehicle control) were calculated using non-linear regression curve fitting of the dose response plots on GraphPad Prism V.6.0 software.
# (§4) 3. Assessment of Apo ptotic Markers Levels
# (§5) The levels of the pro-apoptotic markers (Bax and active caspase-3) as well as the anti-apoptotic marker Bcl-2 were determined using ELISA kits; Human Bax ELISA Kit (EIA-4487) DRG® Instruments, Bcl-2 ELISA Kit (99–0042), Zymed® Laboratories, Invitrogen Immunodetection, and Human Caspase-3 (active) ELISA Kit (KHO1091) Invitrogen®, per the manufacturer’s instructions. Breast cancer MDA-MB-231 and MCF-7 cells were cultured as a monolayer in T-25 flasks and were seeded to attain 30% confluency prior to treatment. Cells were then treated separately with MBFS 11b at its IC50 concentration for 24 h. […]
# (§6) captured protein, forming a “sandwich” of specific antibodies around the desired protein in the cell lysate. […] The HRP domain reacted with the added TMB substrate to form a colored product that measured at 450 nm by a plate reader ChroMate-4300 after the reaction was terminated via the addition of stop solution. […]
# hCA XII = hCA XII (Homo sapiens, UniProt O43570); assay: stopped flow carbon dioxide hydrase assay, hCA XII; settings: for Selectivity ratio I/XII: hCA XII over hCA I; for Selectivity ratio II/XII: hCA XII over hCA II
# Chain of hCA XII (O43570 25-354): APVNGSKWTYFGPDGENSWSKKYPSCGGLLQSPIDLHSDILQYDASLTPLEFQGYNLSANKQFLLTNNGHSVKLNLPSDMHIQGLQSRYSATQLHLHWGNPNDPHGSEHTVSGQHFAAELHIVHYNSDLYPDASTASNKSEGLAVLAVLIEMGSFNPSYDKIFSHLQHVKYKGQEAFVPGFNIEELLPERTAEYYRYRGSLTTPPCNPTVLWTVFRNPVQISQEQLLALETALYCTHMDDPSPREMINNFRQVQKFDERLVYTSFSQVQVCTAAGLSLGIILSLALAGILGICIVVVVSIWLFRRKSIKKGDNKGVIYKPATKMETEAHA
# active caspase-3 [2] = assay: active caspase-3 level (ELISA) in MCF-7 cells; format: cell-based, human; settings: 24 h incubation
# Method: as §1, §2, §3, §4, §5, §6
# hCA I = hCA I (Homo sapiens, UniProt P00915); assay: stopped flow carbon dioxide hydrase assay, hCA I
# Chain of hCA I (P00915 whole entry): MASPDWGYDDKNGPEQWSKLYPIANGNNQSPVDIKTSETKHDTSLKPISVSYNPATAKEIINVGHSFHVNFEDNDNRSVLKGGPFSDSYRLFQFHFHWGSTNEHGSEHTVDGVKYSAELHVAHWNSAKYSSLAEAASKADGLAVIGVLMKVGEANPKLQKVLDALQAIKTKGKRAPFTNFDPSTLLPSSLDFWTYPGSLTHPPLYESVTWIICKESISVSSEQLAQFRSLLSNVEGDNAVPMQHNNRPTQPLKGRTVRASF
# Bax [3] = assay: Bax expression level (ELISA) in MDA-MB-231 cells; format: cell-based, human; settings: 24 h incubation
# Method: as §1, §2, §4
# (§7) The levels of the pro-apoptotic markers (Bax and active caspase-3) as well as the anti-apoptotic marker Bcl-2 were determined using ELISA kits; Human Bax ELISA Kit (EIA-4487) DRG® Instruments, Bcl-2 ELISA Kit (99–0042), Zymed® Laboratories, Invitrogen Immunodetection, and Human Caspase-3 (active) ELISA Kit (KHO1091) Invitrogen®, per the manufacturer’s instructions. Breast cancer MDA-MB-231 and MCF-7 cells were cultured as a monolayer in T-25 flasks and were seeded to attain 30% confluency prior to treatment. Cells were then treated separately with MBFS 11b at its IC50 concentration for 24 h. At the end of treatment, cells were collected via trypsinization and centrifuged at 10,000 rpm. The pellet was then rinsed with PBS and lysed in RIPA lysis buffer at 4 °C for 45 min, then centrifuged at 14,000 rpm for 20 min to remove the cellular debris. Lysates were then collected and stored at −80 °C for later protein determination using Pierce BCA Protein Assay Kit according to manufacturer’s recommendations.
# (§8) The cell lysate was diluted 10 times, and 100 μL ([…]) was added to the wells of […] separate microtiter plates for the three ELISA kits th at were pre-coated with primary antibodies specific to Bax, Bcl-2, and caspase-3 proteins, respectively. A secondary biotin-linked antibody specific to the protein captured by the primary antibody was further added to bind the […]
# (§9) captured protein, forming a “sandwich” of specific antibodies around the desired protein in the cell lysate. The streptavidin-HRP complex was then used to bind the biotin-linked secondary antibody through its streptavidin portion. The HRP domain reacted with the added TMB substrate to form a colored product that measured at 450 nm by a plate reader ChroMate-4300 after the reaction was terminated via the addition of stop solution. […]
# (§10) The ligand 3D structures were prepared by Maestro and their ionization states was checked with Epik at pH 7.4±0.5 then they were subjected to energy minimization using OPLS3 force field in Macromodel with a maximum number of 2500 conjugate gradient iteration and a convergence of 0.05 kcal mol−1 A−1. […]
# Bcl-2 = Bcl-2 expression level (ELISA) in MDA-MB-231 cells; format: cell-based, human; settings: for Bcl-2 / Bcl-2, folds of control: 24 h incubation; for decrease in the expression level of Bcl-2 protein: in comparison to the untreated control
# Method: as §1, §2, §4, §7, §8, §9
# The ligand 3D structures were prepared by Maestro and their ionization states was checked with Epik at pH 7.4±0.5 then they were subjected to energy minimization using OPLS3 force field in Macromodel with a maximum number of 2500 conjugate gradient iteration and a convergence of 0.05 kcal mol−1 A−1. Glide with default parameters was u sed to generate th e docking g rid setting the center of the co-crystallized lig and s as grid center. Docking was performed using the standard precision mode (SP) implemented in Glide and the top 5 poses for each ligand were returned. Prime MMGBSA was used for the refinement of the best pose for each ligand, using VSGB solvation model setting the receptor flexible within 3 A around the ligand.
# hCA IX = hCA IX (Homo sapiens, UniProt Q16790); assay: stopped flow carbon dioxide hydrase assay, hCA IX; settings: for Selectivity ratio I/IX: hCA IX over hCA I; for Selectivity ratio II/IX: hCA IX over hCA II
# MDA-MB-231 = assay: 72 h MTT anti-proliferative assay under hypoxic conditions, MDA-MB-231; format: cell-based; settings: Homo sapiens, mean ± S.D. of three experiments
# Excerpt: 1. Carbonic anhydrase inhibition assay
# The enzymes are recombinant proteins prepared in our lab.
# parameters and inhibition constants.
# 2. Anti-proliferative action toward human breast cell lines
# active caspase-3 [4] = assay: active caspase-3 level (ELISA) in MDA-MB-231 cells; format: cell-based, human; settings: 24 h incubation
# Method: as §1, §2, §4, §7, §8, §9, §10
# hCA II = hCA II (Homo sapiens, UniProt P00918); assay: stopped flow carbon dioxide hydrase assay, hCA II
Compound,BAX (Bax [1]),"BAX, folds of control (Bax [1])",Ki (hCA XII) [nM],Selectivity ratio I/XII (hCA XII),Selectivity ratio II/XII (hCA XII),Active Caspase-3 (active caspase-3 [2]),"Active Caspase-3, folds of control (active caspase-3 [2])",Ki (hCA I) [nM],BAX (Bax [3]),"BAX, folds of control (Bax [3])",Bcl-2 (Bcl-2),"Bcl-2, folds of control (Bcl-2)",decrease in the expression level of Bcl-2 protein (Bcl-2) [%],Selectivity ratio I/IX (hCA IX),Selectivity ratio II/IX (hCA IX),IC50 (MDA-MB-231) [nM],Active Caspase-3 (active caspase-3 [4]),"Active Caspase-3, folds of control (active caspase-3 [4])",Ki (hCA II) [nM],further results
"NS(=O)(=O)c1cccc(Nc2ccnc3ccc(Cl)cc23)c1 [11c, 3-((6-chloroquinolin-4-yl)amino)benzenesulfonamide]",512.9 ± 11.7 Pg/mg of Total Protein,5.36 folds of control,55.3,8.0,2.8,17.83 ± 0.62 Pg/mg of Total Protein,3.64 folds of control,442,420.9 ± 8.24 Pg/mg of Total Protein,7.1 folds of control,6.45 ± 0.17 Pg/mg of Total Protein,0.45 folds of control,55,52.7,18.4,1030 ± 50,12.69 ± 1.14 Pg/mg of Total Protein,4.93 folds of control,155,"Ki (hCA IX; read-out: KI CA IX, stopped flow technique, mean from 3 different assays): 8.4 nM"
"COc1ccc2nccc(Nc3ccc(S(N)(=O)=O)cc3)c2c1 [13b, 4-((6-methoxyquinolin-4-yl)amino)benzenesulfonamide]",443.9 ± 10.2 Pg/mg of Total Protein,4.64 folds of control,13.2,7.0,4.4,14.82 ± 0.43 Pg/mg of Total Protein,3.02 folds of control,92.1,373.5 ± 10.4 Pg/mg of Total Protein,6.3 folds of control,5.304 ± 0.13 Pg/mg of Total Protein,0.37 folds of control,63,16.7,10.6,2240 ± 100,9.32 ± 0.73 Pg/mg of Total Protein,3.62 folds of control,58.4,Ki (hCA IX): 5.5 nM; melting point: 250 to 252 °C
